# Test: solvent given as SMILES
structure (smiles),measurement,setting,value
CCCCCCCCCc1c2ccccc2cc2c1oc1c3c(c4ccccc4c12)-c1c(c2oc4cc5ccccc5cc4c2c2ccccc12)OCO3,absorption maximum,in C1CCOC1,397 nm
COc1cc(OC)c2cc(-c3ccc(-c4cc5c(OC)cc(OC)cc5oc4=O)cc3)c(=O)oc2c1,absorption maximum,in ClC(Cl)Cl,372 nm
N#C/C(=C\c1cc(/C=C(\C#N)c2ccc(C(F)(F)F)cc2)c(-c2ccc(N(c3ccccc3)c3ccccc3)cc2)cc1-c1ccc(N(c2ccccc2)c2ccccc2)cc1)c1ccc(C(F)(F)F)cc1,absorption maximum,in C1CCCCC1,405 nm
same,absorption maximum,in C1CCOC1,402 nm
same,absorption maximum,in CCCCCC,402 nm
same,absorption maximum,in CCOC(C)=O,397 nm
same,absorption maximum,in Cc1ccccc1,408 nm
same,absorption maximum,in ClC(Cl)Cl,407 nm
same,absorption maximum,in ClCCl,405 nm
CN(C)c1ccc(/C=C/c2ccncn2)cc1,absorption maximum,in ClCCl,393 nm
C[n+]1ccc2c(ccc3c[n+](C)ccc32)c1,absorption maximum,in CC#N,387 nm
Nc1cc(F)c(C(=O)c2cc(F)c(F)cc2F)cc1F,absorption maximum,in CCO,335 nm
C(S/C=C/c1ccc(-c2ccc(/C=C/SC=C3CCCC3)cc2)cc1)=C1CCCC1,absorption maximum,in ClCCl,352 nm
Cc1nnc(-c2cc(-c3nnc(C)o3)c(-n3c4ccccc4c4ccccc43)cc2-n2c3ccccc3c3ccccc32)o1,absorption maximum,in Cc1ccccc1,359 nm
Cc1ccc(-c2ccc(/C=C/c3ccc(N(C)C)cc3)cn2)nc1,absorption maximum,in CC#N,383 nm
COc1ccccc1-c1c2ccc(=[N+]3CCCCC3)cc-2oc2cc(N3CCCCC3)ccc12,absorption maximum,in CCO,564 nm
same,absorption maximum,in ClCCl,566 nm
CCn1c2ccc(-c3ccc(-c4cccs4)s3)cc2c2cc(-c3ccc(-c4cccs4)s3)ccc21,absorption maximum,in ClCCl,380 nm
CC(C)(C)c1ccc2c(c1)c1cc(C(C)(C)C)ccc1n2-c1ccc(N(c2ccc(-c3ccc(-c4ccc(N(c5ccc(-n6c7ccc(C(C)(C)C)cc7c7cc(C(C)(C)C)ccc76)cc5)c5ccc(-n6c7ccc(C(C)(C)C)cc7c7cc(C(C)(C)C)ccc76)cc5)cc4)c4nsnc34)cc2)c2ccc(-n3c4ccc(C(C)(C)C)cc4c4cc(C(C)(C)C)ccc43)cc2)cc1,absorption maximum,in ClCCl,462 nm
c1ccc2c(c1)-c1ccccc1C21c2ccccc2-c2sc3c(c21)C1(c2ccccc2-c2ccccc21)c1ccccc1-3,absorption maximum,in C1CCOC1,373 nm
COC(=O)/C=C/c1sc(-c2ccc(N(C)C)cc2)c(-c2cccnc2)c1N,absorption maximum,in CC#N,415 nm
c1ccc(-c2nc(-c3ccc(-c4ccc(N(c5ccccc5)c5ccccc5)cc4)cn3)oc2-c2ccccc2)cc1,absorption maximum,in C1CCOC1,351 nm
same,absorption maximum,in C1COCCO1,354 nm
same,absorption maximum,in CC#N,353 nm
same,absorption maximum,in CC(C)=O,352 nm
same,absorption maximum,in CC(C)OC(C)C,351 nm
same,absorption maximum,in CCCCCC,353 nm
same,absorption maximum,in CCCCOCCCC,353 nm
same,absorption maximum,in CCN(CC)CC,348 nm
same,absorption maximum,in CCOC(C)=O,351 nm
same,absorption maximum,in CCOCC,348 nm
same,absorption maximum,in Cc1ccccc1,358 nm
same,absorption maximum,in c1ccccc1,359 nm
c1ccc2c(-n3c4ccccc4c4ccccc43)cccc2c1,absorption maximum,in C1CCCCC1,321 nm
same,absorption maximum,in C1CCOC1,323 nm
same,absorption maximum,in CC#N,322 nm
same,absorption maximum,in CCO,325 nm
same,absorption maximum,in CCOC(C)=O,323 nm
same,absorption maximum,in CCOCC,322 nm
same,absorption maximum,in CO,323 nm
same,absorption maximum,in Cc1ccccc1,321 nm
same,absorption maximum,in ClC(Cl)Cl,324 nm
O=C1C=C(Nc2ccc(F)cc2F)C(=O)c2ccccc21,absorption maximum,in CCCCCC,439 nm
same,absorption maximum,in CO,443 nm
CC(C)(C)c1ccc2c(c1)c1cc(C(C)(C)C)ccc1n2-c1cccc(-c2nc(-c3cccc(-n4c5ccc(C(C)(C)C)cc5c5cc(C(C)(C)C)ccc54)c3)nc(-c3cccc(P(=O)(c4ccccc4)c4ccccc4)c3)n2)c1,absorption maximum,in C1CCOC1,344.36 nm
same,absorption maximum,in CC#N,344.36 nm
same,absorption maximum,in CC(C)=O,344.36 nm
same,absorption maximum,in CN(C)C=O,344.36 nm
same,absorption maximum,in Cc1ccccc1,344.36 nm
same,absorption maximum,in ClC(Cl)Cl,344.36 nm
same,absorption maximum,in ClCCl,344.36 nm
CCCCC1(c2ccccc2)Nc2c(-c3ccc(N(C)c4ccccc4)cc3)ccc(-c3ccc(N(C)c4ccccc4)cc3)c2N=C1c1ccccc1 (stereo not given),absorption maximum,in ClC(Cl)Cl,380 nm
Cc1ccc(C2=C(/C=C/C(=O)OC3CC[C@@]4(C)C(=CC[C@H]5[C@@H]6CC[C@H]([C@H](C)CCCC(C)C)[C@@]6(C)CC[C@@H]54)C3)C(c3ccc(C)cc3)=[N+]3C2=Nc2c(-c4ccc(C)cc4)c(Br)c(-c4ccc(C)cc4)n2[B-]3(F)F)cc1 (stereo not given in full),absorption maximum,in ClC(Cl)Cl,662 nm
COCCC1=Cc2nc1ccc1[nH]c(cc1CCOC)c1nc(c(O)cc3[nH]c2cc3CCOC)C(CCOC)=C1,absorption maximum,in Cc1ccccc1,680 nm
Nc1ccccc1,absorption maximum,in C1CCCCC1,283.13 nm
CCCCC(CC)Cn1c2cc(C#N)ccc2c2ccc(C#Cc3ccc4ccc5cccc6ccc3c4c56)cc21 (stereo not given),absorption maximum,in ClCCl,410 nm
c1ccc(-c2nc(-c3ccccc3)nc(-c3ccc(-n4c5ccccc5c5cc(-c6ccc7oc8ccccc8c7c6)ccc54)cc3)n2)cc1,absorption maximum,in Cc1ccccc1,370 nm
CC[C@H](C)COc1ccc(C2=C3C(C)=CC(C)=[N+]3[B-](F)(F)n3c(C)cc(C)c32)cc1,absorption maximum,in ClCCl,501 nm
N#Cc1cnc(-c2c3ccccc3cc3ccccc23)nc1,absorption maximum,in CCO,382 nm
same,absorption maximum,in ClCCl,385 nm
CCn1c2sccc2c2c3nsnc3c3c4ccsc4n(CC)c3c21,absorption maximum,in C1CCOC1,424 nm
same,absorption maximum,in CCOC(C)=O,422 nm
same,absorption maximum,in CN(C)C=O,430 nm
same,absorption maximum,in Cc1ccccc1,423 nm
same,absorption maximum,in ClCCl,425 nm
CC(C)(C)OC(=O)CN1CCN(c2ccc3c(-c4ccc(I)cc4)c4ccc(=[N+]5CCN(CC(=O)OC(C)(C)C)CC5)cc-4oc3c2)CC1,absorption maximum,in ClCCl,564 nm
c1ccc(N(c2ccccc2)c2cc3c4c(c2)N(c2ccccc2)c2cc5c(cc2B4c2ccccc2N3c2ccccc2)B2c3ccccc3N(c3ccccc3)c3cc(N(c4ccccc4)c4ccccc4)cc(c32)N5c2ccccc2)cc1,absorption maximum,in Cc1ccccc1,457 nm
CC(C)(C)c1ccc(-c2ccc3c(-c4ccc(C(C)(C)C)c5ccccc45)cc4c5cc(-c6ccc(C(C)(C)C)c7ccccc67)ccc5c(-c5ccc(C(C)(C)C)c6ccccc56)cc4c3c2)c2ccccc12,absorption maximum,in ClCCl,300 nm
O=S(=O)([O-])c1cc(S(=O)(=O)Cl)ccc1C1=c2cc3c4c(c2Oc2c1cc1c5c2CCCN5CCC1)CCC[N+]=4CCC3,absorption maximum,in O,589 nm
F[B-]1(F)n2c(ccc2-c2cccs2)C(c2ccc(Br)cc2)=C2C=CC(c3cccs3)=[N+]21,absorption maximum,in ClC(Cl)Cl,622 nm
COc1ccc(C(=O)NC(C)(C)C)c2c1ccc1c3ccccc3c3ccccc3c12,absorption maximum,in ClCCl,334 nm
CC(C)Nc1cc(F)c(C(=O)c2cc(F)c(NC(C)C)cc2F)cc1F,absorption maximum,in CCO,357 nm
CCC1=C(C)C2=C(c3cc(C(=O)Cl)cc(C4=C5C(C)=C(CC)C(C)=[N+]5[B-](F)(F)n5c(C)c(CC)c(C)c54)c3)c3c(C)c(CC)c(C)n3[B-](F)(F)[N+]2=C1C,absorption maximum,in C1CCOC1,530 nm
same,absorption maximum,in CC#N,527 nm
same,absorption maximum,in CN(C)C=O,535 nm
same,absorption maximum,in Cc1ccccc1,534 nm
same,absorption maximum,in ClC(Cl)Cl,534 nm
COc1ccc2c(-c3nc(-c4cccc(C)c4)no3)cc(=O)oc2c1,absorption maximum,in CCO,401 nm
same,absorption maximum,in ClC(Cl)Cl,403 nm
COc1ccc(C2=N/C(=C\c3ccccc3)C(=O)N2)cc1OC,absorption maximum,in C1COCCO1,390 nm
O=C1C=C(Nc2ccc([N+](=O)[O-])cc2[N+](=O)[O-])C(=O)c2ccccc21,absorption maximum,in CO,437 nm
CCn1c2ccccc2c2cc(C#Cc3cc(C#Cc4ccc5c(c4)c4ccccc4n5CC)nc(S(C)(=O)=O)n3)ccc21,absorption maximum,in C1CCOC1,408 nm
same,absorption maximum,in CCOC(C)=O,405 nm
same,absorption maximum,in CN(C)C=O,415 nm
same,absorption maximum,in Cc1ccccc1,411 nm
same,absorption maximum,in ClCCl,417 nm
CCN(CC)c1ccc(/N=N/c2nc3ccc(OC)cc3s2)cc1,absorption maximum,in CC#N,515 nm
same,absorption maximum,in ClCCl,517 nm
Cc1ccc(-n2c(-c3ccccc3N)nc3c4ccccc4c4ccccc4c32)cc1,absorption maximum,in Cc1ccccc1,311 nm
N#Cc1c(-c2ccccc2)cc(N2c3ccccc3Oc3ccccc32)cc1-c1ccccc1,absorption maximum,in C1CCCCC1,398 nm
CCCCOc1ccc(-c2cc3c(o2)c(-c2ccc(OCCCC)cc2)c2n3[B-](F)(F)[N+]3=Cc4c(-c5ccc(OCCCC)cc5)c5oc(-c6ccc(OCCCC)cc6)cc5n4[B-](F)(F)[N+]3=C2)cc1,absorption maximum,in C1CCOC1,619 nm
same,absorption maximum,in CN(C)C=O,620 nm
same,absorption maximum,in CS(C)=O,625 nm
same,absorption maximum,in Cc1ccccc1,626 nm
same,absorption maximum,in ClC(Cl)Cl,624 nm
same,absorption maximum,in ClCCl,622 nm
CCCCCCCCCCCCCCCCn1c(-c2cc(-c3nc4ccccc4n3CCCCCCCCCCCCCCCC)cc(-c3nc4ccccc4n3CCCCCCCCCCCCCCCC)c2)nc2ccccc21,absorption maximum,in ClCCl,301 nm
c1cc2ccc3cc4[nH]ccc4c4ccc(c1)c2c34,absorption maximum,in CCOC(C)=O,384 nm
O=C1OC(=O)c2ccc(N(c3ccccc3)c3ccc4ccc5cccc6ccc3c4c56)c3cccc1c23,absorption maximum,in C1CCOC1,455 nm
same,absorption maximum,in CCCCCC,447 nm
same,absorption maximum,in ClCCl,465 nm
same,absorption maximum,in c1ccccc1,457 nm
CC(C)(C)c1cc2ccc3c(N(c4ccc(F)cc4)c4ccc(F)cc4)cc(N(c4ccc(F)cc4)c4ccc(F)cc4)c4ccc(c1)c2c34,absorption maximum,in ClCCl,414 nm
COc1cc2c(cc1-c1ccc(Cl)cc1)Cc1c3c(c4c(c1-2)-c1cc(OC)c(-c2ccc(Cl)cc2)cc1C4)C(=O)N(CCC(C)C)C3=O,absorption maximum,in C1CCOC1,406 nm
F[B-]1(F)OC(c2ccc(C(F)(F)F)cc2)=Cc2cc(Cl)nc[n+]21,absorption maximum,in C1CCOC1,371 nm
same,absorption maximum,in CC#N,368 nm
same,absorption maximum,in CCCCCC,370 nm
same,absorption maximum,in Cc1ccccc1,374 nm
same,absorption maximum,in ClC(Cl)Cl,372 nm
same,absorption maximum,in ClCCl,372 nm
CCC12C(=C3C(=C4c5ccc(-c6ccccc6)cc5S(=O)(=O)C41CC)C(F)(F)C(F)(F)C3(F)F)c1ccc(-c3ccccc3)cc1S2(=O)=O (stereo not given),absorption maximum,in C1COCCO1,456 nm
COc1ccc2n1[B-](F)(F)[N+]1=C(c3ccccc3)C=CC1=C2c1ccc(C)cc1,absorption maximum,in C1CCCCC1,532 nm
same,absorption maximum,in C1CCOC1,528 nm
same,absorption maximum,in C1COCCO1,529 nm
same,absorption maximum,in CCOC(C)=O,526 nm
same,absorption maximum,in CO,523 nm
same,absorption maximum,in Cc1ccccc1,534 nm
same,absorption maximum,in ClC(Cl)Cl,530 nm
Cc1ccc2nc3[nH]c(=O)[nH]c(=O)c3nc2c1,absorption maximum,in CC#N,382 nm
same,absorption maximum,in ClCCCl,384 nm

# From the Deep4Chem optical property database
